Columns and labels:
MKN45 cells = experiment: MKN45 cell proliferation assay (Cell-Titer-Glo, 120 h); assay type: cell-based; details: for EC50: Homo sapiens, MKN-45, 120 h, Cell-Titer-Glo, growth inhibition, read-out: MKN45 Cell Prolif. 120 hr (EC50); for MKN45 Cell Prolif. 120 hr (Ymin-Obs): minimal percent of DMSO control observed in the concentrations tested
Method in brief: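 Growth inhibition was read as blank-corrected Cell-Titer-Glo luminescence expressed as percent DMSO control after 120 h at 37 C, 400 cells/well. Compounds tested in triplicate as 10-point half-log series from 1 or 10 uM, 0.1% DMSO; four-parameter fit gave EC50, and lowest observed percent control was reported as Ymin-obs.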

WEE1 = target: T1, WEE1 (Homo sapiens, UniProt P30291+Q96SW2); experiment: WEE1-ePL degradation assay (LentiX-WEE1-ePL-GSPT1-ND cells, InCELL Hunter luminescence, 4 h); assay type: cell-based; details: 293T-LentiX WEE1-ePL cells; for 293T-LentiX WEE1-ePL Degradation 4 hr (Ymin): lower limit of the fit (0 = luciferase inhibitor, Ymax = DMSO control); for DC50: read-out: 293T-LentiX WEE1-ePL Degradation 4 hr (EC50)
T1 construct: C-terminal ePL-tagged (DiscoverX, Fremont, CA) full-length WEE1 expression construct; expressed in transfected cells; host or cells: LentiX-HEK293T (Invitrogen), lentiviral transduction; co-expressing GSPT1-GN (G576N, lacking the first 158 amino acids)
Method in brief: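 Luminescent readout (InCELL Hunter, 30 min RT) of WEE1-ePL levels in transduced HEK293T cells after 4 h compound exposure at 37 °C. Dosing: 10 points, 3-fold steps, top 1 uM or 10 uM. EC50 from four-parameter logistic fit; Ymax set by DMSO.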

Row | Compound | EC50 (MKN45 cells) | MKN45 Cell Prolif. 120 hr (Ymin-Obs) (MKN45 cells) | 293T-LentiX WEE1-ePL Degradation 4 hr (Ymin) (WEE1) | DC50 (WEE1)
1 | Cc1ccnc(CN2CC[C@H](Oc3ccc4c(c3)CN(C3CCC(=O)NC3=O)C4=O)C2)c1 (stereo partly drawn) [3-(5-{[(3S)-1-[(4-methylpyridin-2-yl)methyl]pyrrolidin-3-yl]oxy}-1-oxo-2,3-dihydro-1H-isoindol-2-yl)piperidine-2,6-dione] | 1330 nM | 42.67 | 38.55 | 65.4 nM
2 | O=C1CCC(N2Cc3cc(O[C@H]4CCN(Cc5cnc6ccc(F)c(F)c6c5)C4)ccc3C2=O)C(=O)N1 (stereo partly drawn) [3-(5-{[(3S)-1-[(5,6-difluoroquinolin-3-yl)methyl]pyrrolidin-3-yl]oxy}-1-oxo-2,3-dihydro-1H-isoindol-2-yl)piperidine-2,6-dione] | 166 nM | 44.73 | 43.98 | 13.3 nM
3 | Cc1cc(CN2CC[C@H](Oc3ccc4c(c3)CN(C3CCC(=O)NC3=O)C4=O)C2)cnc1C (stereo partly drawn) [3-(5-{[(3S)-1-[(5,6-dimethylpyridin-3-yl)methyl]pyrrolidin-3-yl]oxy}-1-oxo-2,3-dihydro-1H-isoindol-2-yl)piperidine-2,6-dione] | 955 nM | 43.03 | 35.675 | 25.9 nM
4 | Cc1ccc2c(F)c(CN3CC[C@H](Oc4ccc5c(c4)CN(C4CCC(=O)NC4=O)C5=O)C3)ccc2n1 (stereo partly drawn) [3-(5-{[(3S)-1-[(5-fluoro-2-methylquinolin-6-yl)methyl]pyrrolidin-3-yl]oxy}-1-oxo-2,3-dihydro-1H-isoindol-2-yl)piperidine-2,6-dione] | 8.08 nM | 9.22 | 28.365 | 1.51 nM
5 | O=C1CCC(N2Cc3cc(O[C@H]4CCN(Cc5cc6c(F)cccc6cn5)C4)ccc3C2=O)C(=O)N1 (stereo partly drawn) [3-(5-{[(3S)-1-[(5-fluoroisoquinolin-3-yl)methyl]pyrrolidin-3-yl]oxy}-1-oxo-2,3-dihydro-1H-isoindol-2-yl)piperidine-2,6-dione] | 185 nM | 53.33 | 43.45 | 13.3 nM
6 | O=C1CCC(N2Cc3cc(O[C@H]4CCN(Cc5cnc6cccc(F)c6c5)C4)ccc3C2=O)C(=O)N1 (stereo partly drawn) [3-(5-{[(3S)-1-[(5-fluoroquinolin-3-yl)methyl]pyrrolidin-3-yl]oxy}-1-oxo-2,3-dihydro-1H-isoindol-2-yl)piperidine-2,6-dione] | 309 nM | 35.14 | 31.52 | 12 nM
7 | COc1cncc(CN2CC[C@H](Oc3ccc4c(c3)CN(C3CCC(=O)NC3=O)C4=O)C2)c1C (stereo partly drawn) [3-(5-{[(3S)-1-[(5-methoxy-4-methylpyridin-3-yl)methyl]pyrrolidin-3-yl]oxy}-1-oxo-2,3-dihydro-1H-isoindol-2-yl)piperidine-2,6-dione] | 833 nM | 59.99 | 61 | 28.5 nM
8 | COc1cncc(CN2CC[C@H](Oc3ccc4c(c3)CN(C3CCC(=O)NC3=O)C4=O)C2)c1 (stereo partly drawn) [3-(5-{[(3S)-1-[(5-methoxypyridin-3-yl)methyl]pyrrolidin-3-yl]oxy}-1-oxo-2,3-dihydro-1H-isoindol-2-yl)piperidine-2,6-dione] | 3320 nM | 48.12 | 37.55 | 61.4 nM
9 | Cc1cccc2cnc(CN3CC[C@H](Oc4ccc5c(c4)CN(C4CCC(=O)NC4=O)C5=O)C3)cc12 (stereo partly drawn) [3-(5-{[(3S)-1-[(5-methylisoquinolin-3-yl)methyl]pyrrolidin-3-yl]oxy}-1-oxo-2,3-dihydro-1H-isoindol-2-yl)piperidine-2,6-dione] | 86.1 nM | 19.01 | 31.91 | 4.62 nM
10 | Cc1cccc2ncc(CN3CC[C@H](Oc4ccc5c(c4)CN(C4CCC(=O)NC4=O)C5=O)C3)cc12 (stereo partly drawn) [3-(5-{[(3S)-1-[(5-methylquinolin-3-yl)methyl]pyrrolidin-3-yl]oxy}-1-oxo-2,3-dihydro-1H-isoindol-2-yl)piperidine-2,6-dione] | 37 nM | 12.09 | 26.805 | 5.31 nM
11 | O=C1CCC(N2Cc3cc(O[C@H]4CCN(Cc5cnc6ccc(F)cc6c5)C4)ccc3C2=O)C(=O)N1 (stereo partly drawn) [3-(5-{[(3S)-1-[(6-fluoroquinolin-3-yl)methyl]pyrrolidin-3-yl]oxy}-1-oxo-2,3-dihydro-1H-isoindol-2-yl)piperidine-2,6-dione] | 64.5 nM | 16.03 | 30.015 | 9.19 nM
12 | CN1CCc2ncc(CN3CC[C@H](Oc4ccc5c(c4)CN(C4CCC(=O)NC4=O)C5=O)C3)cc2C1 (stereo partly drawn) [3-(5-{[(3S)-1-[(6-methyl-5,6,7,8-tetrahydro-1,6-naphthyridin-3-yl)methyl]pyrrolidin-3-yl]oxy}-1-oxo-2,3-dihydro-1H-isoindol-2-yl)piperidine-2,6-dione] | 5050 nM | 33.405 | 34 | 216 nM
13 | Cc1ccc2ncc(CN3CC[C@H](Oc4ccc5c(c4)CN(C4CCC(=O)NC4=O)C5=O)C3)cc2c1 (stereo partly drawn) [3-(5-{[(3S)-1-[(6-methylquinolin-3-yl)methyl]pyrrolidin-3-yl]oxy}-1-oxo-2,3-dihydro-1H-isoindol-2-yl)piperidine-2,6-dione] | 33.6 nM | 13.08 | 29.6 | 9.38 nM
14 | O=C1CCC(N2Cc3cc(O[C@H]4CCN(Cc5cc6ccc(F)cc6cn5)C4)ccc3C2=O)C(=O)N1 (stereo partly drawn) [3-(5-{[(3S)-1-[(7-fluoroisoquinolin-3-yl)methyl]pyrrolidin-3-yl]oxy}-1-oxo-2,3-dihydro-1H-isoindol-2-yl)piperidine-2,6-dione] | 24.8 nM | 10.88 | 28.82 | 4.93 nM
15 | COc1ccc2cc(CN3CC[C@H](Oc4ccc5c(c4)CN(C4CCC(=O)NC4=O)C5=O)C3)nnc2c1 (stereo partly drawn) [3-(5-{[(3S)-1-[(7-methoxycinnolin-3-yl)methyl]pyrrolidin-3-yl]oxy}-1-oxo-2,3-dihydro-1H-isoindol-2-yl)piperidine-2,6-dione] | 12.4 nM | 7.52 | 28 | 5.48 nM
16 | CN1CCc2cc(CN3CC[C@H](Oc4ccc5c(c4)CN(C4CCC(=O)NC4=O)C5=O)C3)cnc2C1 (stereo partly drawn) [3-(5-{[(3S)-1-[(7-methyl-5,6,7,8-tetrahydro-1,7-naphthyridin-3-yl)methyl]pyrrolidin-3-yl]oxy}-1-oxo-2,3-dihydro-1H-isoindol-2-yl)piperidine-2,6-dione] | 425 nM | 11.9 | 34 | 65.1 nM
17 | CN1CCc2c(cncc2CN2CC[C@H](Oc3ccc4c(c3)CN(C3CCC(=O)NC3=O)C4=O)C2)C1 (stereo partly drawn) [3-(5-{[(3S)-1-[(7-methyl-5,6,7,8-tetrahydro-2,7-naphthyridin-4-yl)methyl]pyrrolidin-3-yl]oxy}-1-oxo-2,3-dihydro-1H-isoindol-2-yl)piperidine-2,6-dione] | > 10000 nM | 84.06 | 68 | 558 nM

From patent publication US20240067632A1, “WEE1 Degrading Compounds and Uses Thereof” (Bristol-Myers Squibb Company, priority 2022, published 2024)
